# Reference: a melting point compilation (Tetko et al.; mined from patent text by program, amines drawn as free bases though some values may be those of a salt)
row,Structure (SMILES),melting point
1,COc1cccc2c(=O)n(/C=C/C(=O)O)cnc12,289 to 291 °C
2,COc1ccc(C(=O)COc2ccc(C(=O)OCc3ccccc3)c(O)c2)cc1C(C)(C)C,98 to 99 °C
3,O=C(Nc1cnc2c(c1)CCCC2)C(Cl)(Cl)Cl,157 to 159 °C
4,CCOC(=O)c1sc(SC)c2c1CCC(C(OCC)OCC)C2=O (configuration not stated),113 to 114 °C
5,CC(=O)c1ccc2c(c1)ncn2-c1cccc(-c2cnc(N)nc2)c1,275 to 278 °C
6,CCCOc1cccc(C(=O)O)c1O,114 to 118 °C
7,CCc1ccc(-c2ccc(F)cc2)cc1,60 to 63 °C
8,Cc1cc(C)c2cc(C3CCNC(C)C3)sc2c1 (configuration not stated),52 to 57 °C
9,O=C(O)CCCCCc1cccc2cncn12,144 to 147 °C
10,CSCCC(=O)NCc1cccc(-c2nc(=O)c3ccccc3s2)n1,192 to 193 °C
11,CNC(=S)C1(c2cccnc2)CCCCC1NOCCO (configuration not stated),142 to 145 °C
12,NS(=O)(=O)c1ccc(N2N=C(C(F)(F)F)CC2c2ccccc2)cc1 (configuration not stated),132 to 135 °C
13,CCCNCCc1ccc(NS(=O)(=O)c2ccc(Br)cc2)cc1,141 to 143 °C
14,CC(=O)c1cccc(C(=O)NC(Nc2c(Nc3cccnc3)c(=O)c2=O)C(C)(C)C)c1 (configuration not stated),218 to 219 °C
15,CC(C)NC(=O)c1cccc(I)c1C(=O)Nc1ccc(OCC(F)(F)F)nc1,200 to 203 °C
16,CCCCCCCCCCCCS(=O)CCOc1ccc(CCC(=O)C(F)(F)F)cc1 (configuration not stated),98 to 100 °C
17,C[Si](C)(C)CC1=C[C@@H](c2ccccc2)[C@H]2C(=O)OC(=O)[C@H]2C1 (racemic),126 °C
18,COC(=O)C(CCSC)NC(=O)c1ccc([N+](=O)[O-])cc1-c1cc(C)cc(C)c1 (configuration not stated),122 to 124 °C
19,CCCCOc1ccc2sc(-c3ccccn3)nc(=O)c2c1,161 to 162 °C
20,CC(=O)c1cccc2c1Oc1c(C(C)=O)cccc1N2[Si](C)(C)C(C)(C)C,146 °C
21,O=C1CN(c2cccc(Oc3ccccc3)c2)NC(=O)N1,172 to 173 °C
22,CC(=O)OCc1cc(=O)n2ccsc2n1,144 to 145 °C
23,CCOC(=O)C1=C(C)NC(C)=C(C(=O)OCC)C1c1ccc(Br)cc1F,154 to 155 °C
24,COC(=O)c1cc(Cl)c(C)c(Cl)c1,47.5 to 48.5 °C

row,Structure (SMILES),melting point
1,CCC1(C2OC(C3OC(O)(CO)C(C)CC3C)CC2C)CCC(C2(C)CCC3(CC(O)C(C)C(C(C)C(OC)C(C)C(=O)O)O3)O2)O1 (configuration not stated),78 to 80 °C
2,COC(=O)CC(C#Cc1cccc(-c2nnc(C)o2)c1)c1ccc(OC)c(OC2CCCC2)c1 (racemic),104 to 105 °C
3,C=Cc1cc(C)cc(C)c1C1=C(O)C2(CCN(OC)CC2)N(C)C1=O,158 to 161 °C
4,COC(=O)C1=C(Cl)C(=O)CC(c2ccc(Cl)c(OC)c2F)N1 (configuration not stated),127 to 129 °C
5,COc1ccc(N2CCN(c3ccc(NC(=O)NN)nc3)CC2)cc1,260 to 263 °C
6,Cn1cnc2ccc(N/C(=C3\C(=O)Nc4ccccc43)c3ccccc3)cc21,163 to 165 °C
7,Cc1cccc(NC(=O)NCC(=O)N(CC(=O)N2CCc3ccccc3C2)c2ccccc2)c1,135 °C
8,COc1cc(C(=O)N(C(C)C)C2CCCCC2)ccc1Cn1c(CN(C)C)nc2ncccc21,141 to 142 °C
9,Nc1ncnc2c1ncn2CCCN1CCC(NC(=O)c2ccccc2)CC1,213 to 214 °C
10,OC(CN1CCC(c2c[nH]c3ccccc23)CC1)C1COc2ccccc2O1 (configuration not stated),145 °C
11,COCCOc1cc2ncc(C#N)c(Nc3ccc(C)c(O)c3)c2cc1OC,230 to 233 °C
12,CCCCOC1(c2nc(-c3ccc(F)cc3)c(-c3ccncc3)[nH]2)CCN(C)CC1,177 °C
13,CCc1cn(C2CC(O)C(CS(=O)(=O)Cc3ccccc3)O2)c(=O)[nH]c1=O (configuration not stated),232 to 233 °C
14,COc1ccc(C(=O)Cl)cc1I,58 °C
15,CC(C)(C)OC(=O)N1CCC(Oc2c(F)cc3c(=O)c(C(=O)O)cn(C4CC4)c3c2F)C1 (configuration not stated),158 to 160 °C
16,COC(=O)c1c(NC(C)C)cccc1S(=O)(=O)NC(C)(C)C,110 to 112 °C
17,N#Cc1ccc2c(c1)S(=O)(=O)NCN2C1CC1,259 to 261 °C
18,Cc1cc2cccc(OS(=O)(=O)C(F)(F)F)c2nc1-c1ccccc1,85 °C
19,CNc1cccc([N+](=O)[O-])c1C#N,203 to 206 °C
20,O=C(Nc1c(C(O)(C(F)(F)F)C(F)(F)F)ccc2ccccc12)c1ccc(Br)cc1,155 to 156 °C
21,CCC(NC(=O)c1sc(NC(=O)c2ccccc2)nc1C)c1ccccc1 (configuration not stated),87 to 89 °C
22,CC(C)n1nc(-c2cc(C#N)c(C(=O)O)nc2-c2ccccc2)ccc1=O,196 to 198 °C
23,CC(=O)N(C(=O)N(C)C)c1snc(C(C)C)c1C#N,128 to 130 °C
24,CCOc1cccc2c1C(=NNc1ccc(S(N)(=O)=O)cc1)C(=O)N2,> 250 °C

row,Structure (SMILES),melting point
1,C=CCOc1ccc(C[C@H](N)C(=O)NC(=O)OC(C)(C)C)cc1,145 °C
2,CN(c1ccc(S(C)(=O)=O)cc1)S(=O)(=O)c1cccc(NC(=O)c2ccc(S(C)(=O)=O)cc2)c1,213 to 215 °C
3,S=c1nc(-c2ccc(Cl)cc2Cl)[nH]n1Cc1ccccc1,169 to 170 °C
4,CCc1cc2c(Sc3ccc(C)cc3)ncnc2s1,56 to 58 °C
5,COc1cc(OC)c(C(=O)CCCCCl)cc1NC(=O)Nc1ccc(C(F)(F)F)cc1,154 to 156 °C
6,CCOc1ccc2[nH]c(=O)n(-c3ccc(OC)cc3)c2c1,98 °C
7,CC(C)(C(=O)O)n1c(=O)[nH]c2cc3ccccc3cc2c1=O,273 to 276 °C
8,CSc1cc2ccc(-c3ccccc3)cc2cc1OS(=O)(=O)C(F)(F)F,87.8 to 88.7 °C
9,O=C(O)c1cnc2n(c1=O)CCC=C2Nc1ccccc1,197 to 198 °C
10,CC1=C(CO)C(=O)OC(C(C)C2CCC3C4CC5OC56C(O)C=CC(=O)C6(C)C4CCC23C)C1 (configuration not stated),227 to 228 °C
11,COc1ccc(C=C2C(=O)N(C3=NCCS3)c3ccccc32)cc1,164 to 167 °C
12,O=C1c2c(F)c(F)c(F)c(F)c2C(=O)N1c1ccccc1,210 to 211 °C
13,OCC(O)CN1CCN(c2nccs2)CC1 (configuration not stated),138 to 139 °C
14,Cc1c(O)ccc2c(=O)cc(N3CCOCC3)oc12,> 250 °C
15,Cc1nc(C(=O)NC(C)(CO[N+](=O)[O-])CO[N+](=O)[O-])cs1,78 to 81 °C
16,c1cc(-c2ccc(OCCCN3CCCC3)cc2)ccc1OCCCN1CCCCC1,105 to 108 °C
17,COc1cc(-c2ccccc2)c(OC)cc1Nc1ncnc2cc(OC)c(OC)cc12,226 to 229 °C
18,CCOC(=O)C(Cc1ccccc1)NC(=O)c1cc2cc(Cl)ccc2[nH]1 (configuration not stated),146 to 147 °C
19,COCCOc1cc2c(Nc3ccc(Sc4nccn4C)c(Cl)c3)c(C#N)cnc2cc1F,265 to 270 °C
20,CS(=O)(=O)c1ccc(-c2nc(SCc3ccccc3)[nH]c2-c2ccc(F)cc2)cc1,155 to 156 °C
21,COC(=O)C(CCl)NC(=O)c1c(F)cccc1F (configuration not stated),93.5 °C
22,CCNC(=O)N1CCc2[nH]cnc2C1CCC1CCCCC1 (configuration not stated),210 to 212 °C
23,C=CS(=O)(=O)C=CSc1ccc(C(C)(C)C)cc1,62 to 64 °C
24,CC(=O)c1cn(S(=O)(=O)c2ccccc2)c2nccc(OCc3ccccc3)c12,164 to 166 °C
